We go through six compounds from patent US20240270703A1, “HERBICIDAL COMPOUNDS” (SYNGENTA CROP PROTECTION AG, priority 2021, published 2024).

Holding throughout (type): in vivo
Experiment [1] relates to Amaranthus retroflexus (AMARE). The experiment can be described thus: Herbicidal glasshouse test, PRE application. To be noted: 130 g/ha; evaluated after 14 days; 100=total damage to plant, 0=no damage to plant. As for the experimental part:
(§1) Seeds of a variety of test species are sown in standard soil in pots (Lolium perenne (LOLPE), Amaranthus retroflexus (AMARE), Abutilon theophrasti (ABUTH), Setaria faberi (SETFA), Echinochloa crus-galli (ECHCG), Zea mays (ZEAMX)). After cultivation for one day under controlled conditions in a glasshouse (at 24/16° C., day/night; 14 hours light; 65% humidity), the plants were sprayed with an aqueous spray solution derived from the formulation of the technical active ingredient in 0.6 ml acetone and 45 ml formulation solution containing 10.6% Emulsogen EL (Registry number 61791-12-6), 42.2% N-methyl pyrrolidone, 42.2% dipropylene glycol monomethyl ether (CAS RN 34590-94-8) and 0.2% X-77 (CAS RN 11097-66-8).
(§2) The test plants were then grown in a glasshouse under controlled conditions in a glasshouse (at 24/16° C., day/night; 14 hours light; 65% humidity) and watered twice daily. After 14 days, the test was evaluated (100=total damage to plant; 0=no damage to plant, NC=data not captured). The compounds were applied at 130 g/ha unless otherwise stated.

Experiment [2] deals with Setaria faberi (SETFA). The experiment can be described thus: Herbicidal glasshouse test, PRE application. To be noted: 130 g/ha; evaluated after 14 days; 100=total damage to plant, 0=no damage to plant. As to the method: as §1, §2
Experiment [3] deals with Abutilon theophrasti (ABUTH). The experiment in a line: Herbicidal glasshouse test, PRE application. To be noted: 130 g/ha; evaluated after 14 days; 100=total damage to plant, 0=no damage to plant. As to the method: as §1, §2
Experiment [4] deals with Echinochloa crus-galli (ECHCG). The experiment can be described thus: Herbicidal glasshouse test, PRE application. As to conditions: 130 g/ha; evaluated after 14 days; 100=total damage to plant, 0=no damage to plant. As to the method:
as §1, §2

The subject of experiment [5] is Setaria faberi (SETFA). The experiment in a line: Herbicidal glasshouse test, POST application. As to conditions: 130 g/ha; evaluated after 14 days; 100=total damage to plant, 0=no damage to plant.
In experiment [6] the test system is Amaranthus retroflexus (AMARE). The experiment can be described thus: Herbicidal glasshouse test, POST application. To be noted: 130 g/ha; evaluated after 14 days; 100=total damage to plant, 0=no damage to plant.
The test system of experiment [7] is Zea mays (ZEAMX). The experiment in a line: Herbicidal glasshouse test, PRE application (crop damage). As to conditions: 130 g/ha; evaluated after 14 days; 100=total damage to plant, 0=no damage to plant; maize crop. As for the experimental part: as §1, §2
Experiment [8] concerns Zea mays (ZEAMX). The experiment in a line: Herbicidal glasshouse test, POST application (crop damage). To be noted: 130 g/ha; evaluated after 14 days; 100=total damage to plant, 0=no damage to plant; maize crop.
In experiment [9] the test system is Echinochloa crus-galli (ECHCG). The experiment in a line: Herbicidal glasshouse test, POST application. To be noted: 130 g/ha; evaluated after 14 days; 100=total damage to plant, 0=no damage to plant.
Experiment [10] has as its system Abutilon theophrasti (ABUTH). The experiment can be described thus: Herbicidal glasshouse test, POST application. To be noted: 130 g/ha; evaluated after 14 days; 100=total damage to plant, 0=no damage to plant.

`Cn1nnnc1NC(=O)c1ccc(OC(F)(F)F)c(S(=O)(=O)NCC2CC2)c1Cl` [Compound 1.001]: the “damage to plant, AMARE, PRE Application” value in experiment [1] is given as 100. In the experiment on Setaria faberi (SETFA) [2], the “damage to plant, SETFA, PRE Application” value worked out at 0. Moreover, in experiment [3], the “damage to plant, ABUTH, PRE Application” value is 100. In addition, the “damage to plant, ECHCG, PRE Application” value in experiment [4] worked out at 20. In addition, the “damage to plant, SETFA, POST Application” value with Setaria faberi (SETFA) [5] worked out at 20. Further, the “damage to plant, AMARE, POST Application” value in experiment [6] came out at 100. In the experiment with Zea mays (ZEAMX) [7], the “damage to plant, ZEAMX, PRE Application” value is on record as 0. For the same compound, the “damage to plant, ZEAMX, POST Application” value in the experiment on Zea mays (ZEAMX) [8] stood at 0. In experiment [9], the “damage to plant, ECHCG, POST Application” value worked out at 60. In addition, the “damage to plant, ABUTH, POST Application” value in experiment [10] came to 80.
Turning to `CCNS(=O)(=O)c1c(OC(F)(F)F)ccc(C(=O)Nc2nnnn2C)c1Cl` [Compound 1.002, 2-chloro-3-(ethylsulfamoyl)-N-(1-methyltetrazol-5-yl)-4-(trifluoromethoxy)benzamide], in experiment [1], the “damage to plant, AMARE, PRE Application” value is 100. Also, the “damage to plant, SETFA, PRE Application” value in the experiment with Setaria faberi (SETFA) [2] is reported as 0. Also, the “damage to plant, ABUTH, PRE Application” value in [3] is 80. In experiment [4], the “damage to plant, ECHCG, PRE Application” value is reported as 10. The “damage to plant, SETFA, POST Application” value in the experiment with Setaria faberi (SETFA) [5] worked out at 70. In addition, the “damage to plant, AMARE, POST Application” value in [6] is 100. Besides, in the experiment on Zea mays (ZEAMX) [7], the “damage to plant, ZEAMX, PRE Application” value came out at 0. The “damage to plant, ZEAMX, POST Application” value in the experiment on Zea mays (ZEAMX) [8] is recorded as 0. The “damage to plant, ECHCG, POST Application” value in experiment [9] is reported as 90. The “damage to plant, ABUTH, POST Application” value in [10] was 90.
`CN(C)S(=O)(=O)c1c(OC(F)(F)F)ccc(C(=O)Nc2nnnn2C)c1Cl` [Compound 1.003]: the “damage to plant, AMARE, PRE Application” value in [1] came to 90. Besides, the “damage to plant, SETFA, PRE Application” value in the experiment on Setaria faberi (SETFA) [2] was determined as 0. Also, the “damage to plant, ABUTH, PRE Application” value in experiment [3] was 90. Further, the “damage to plant, ECHCG, PRE Application” value in experiment [4] was 70. In addition, the “damage to plant, SETFA, POST Application” value in the experiment on Setaria faberi (SETFA) [5] was 100. Also, the “damage to plant, AMARE, POST Application” value in [6] came out at 100. In addition, in the experiment on Zea mays (ZEAMX) [7], the “damage to plant, ZEAMX, PRE Application” value was found to be 0. Also, the “damage to plant, ZEAMX, POST Application” value with Zea mays (ZEAMX) [8] worked out at 0. In [9], the “damage to plant, ECHCG, POST Application” value came out at 100. The “damage to plant, ABUTH, POST Application” value in [10] was determined as 100.
`CNS(=O)(=O)c1c(OC(F)(F)F)ccc(C(=O)Nc2nnnn2C)c1Cl` [Compound 1.004]: the “damage to plant, AMARE, PRE Application” value in experiment [1] stood at 100. Besides, the “damage to plant, SETFA, PRE Application” value in the experiment with Setaria faberi (SETFA) [2] came out at 90. Besides, in experiment [3], the “damage to plant, ABUTH, PRE Application” value was 100. In addition, the “damage to plant, ECHCG, PRE Application” value in experiment [4] stood at 90. For the same compound, the “damage to plant, SETFA, POST Application” value in the experiment with Setaria faberi (SETFA) [5] is 80. The “damage to plant, AMARE, POST Application” value in experiment [6] stood at 80. In addition, the “damage to plant, ZEAMX, PRE Application” value in the experiment with Zea mays (ZEAMX) [7] was 0. The “damage to plant, ZEAMX, POST Application” value in the experiment with Zea mays (ZEAMX) [8] was 10. Moreover, in experiment [9], the “damage to plant, ECHCG, POST Application” value is 80. The “damage to plant, ABUTH, POST Application” value in experiment [10] is recorded as 80.
In the case of `CN(C)S(=O)(=O)c1c(OC(F)F)ccc(C(=O)Nc2nnnn2C)c1Cl` [Compound 1.009], the “damage to plant, AMARE, PRE Application” value in experiment [1] turned out to be 100. Moreover, the “damage to plant, SETFA, PRE Application” value in the experiment with Setaria faberi (SETFA) [2] is on record as 100. For the same compound, in experiment [4], the “damage to plant, ECHCG, PRE Application” value is reported as 100. In addition, the “damage to plant, SETFA, POST Application” value with Setaria faberi (SETFA) [5] is listed as 90. Moreover, the “damage to plant, AMARE, POST Application” value in experiment [6] came to 100. The “damage to plant, ZEAMX, PRE Application” value in the experiment with Zea mays (ZEAMX) [7] is listed as 10. Moreover, in the experiment on Zea mays (ZEAMX) [8], the “damage to plant, ZEAMX, POST Application” value came out at 10. The “damage to plant, ECHCG, POST Application” value in [9] is given as 90.
Consider `CCN(C)S(=O)(=O)c1c(OC(F)F)ccc(C(=O)Nc2nnnn2C)c1Cl` [Compound 1.010], for which the “damage to plant, AMARE, PRE Application” value in experiment [1] is 100. In addition, the “damage to plant, SETFA, PRE Application” value in the experiment on Setaria faberi (SETFA) [2] turned out to be 100. In [4], the “damage to plant, ECHCG, PRE Application” value was 100. In addition, the “damage to plant, SETFA, POST Application” value in the experiment with Setaria faberi (SETFA) [5] was 90. In experiment [6], the “damage to plant, AMARE, POST Application” value was 100. In addition, the “damage to plant, ZEAMX, PRE Application” value in the experiment on Zea mays (ZEAMX) [7] stood at 10. Moreover, the “damage to plant, ZEAMX, POST Application” value with Zea mays (ZEAMX) [8] came to 10. Further, the “damage to plant, ECHCG, POST Application” value in [9] is recorded as 100.
